Assay results from patent US9745273B2, “Phenazine derivatives as anti-neoplastic agents and anti-infective agents” (Universitetet I Oslo, priority 2013, dated 2017).

Legend:
[1] = system: certain other bacteria; conditions: cited from earlier work
[2] = system: peripheral blood leukocytes (PBL); conditions: at comparable anti-AML activity; cited from earlier work
[3] = system: blood platelets; conditions: at comparable anti-AML activity; cited from earlier work
[4] = Solubility in water; type: physicochemical
Source text: In the prior art, these problems are not properly addressed. […] In DE 2016467, DE 2115660, U.S. Pat. No. 3,929,790, U.S. Pat. No. 3,937,707, WO 2008/089283, and in Alonso et al, Chem. Comm. 2004, 41, 412-413, methods to alkylate iodinin or myxin via their alkali salts is described. However, the functional groups introduced were alkyl groups, rendering the derivatives less water soluble than the parent compounds. No discussion of improvement in water solubility was described.

[5] = system: mouse sarcoma model; conditions: in vivo; cited from earlier work
[6] = system: intestinal mucosa; conditions: mouse, direct infusion of supra-saturated solution into the gut through a tube; cited from earlier work
[7] = system: rat cardiomyoblasts; conditions: at comparable anti-AML activity; cited from earlier work
[8] = Solubility in biocompatible and organic solvents; type: physicochemical
Source text: However, production of nano-carriers by emulsion-evaporation merit that the compound to be encapsulated must be dissolved in an organic solvent that is immiscible with water. The present invention enables the production of iodinin-encapsulated nanocarriers—iodinin and a biodegradable polymer can be dissolved in chloroform and mixed with water to make a nano-suspension, and organic solvent evaporated to co-precipitate the polymer with iodinin. To improve the nanonization of iodinin, a polymer can be precipitated to produce nanoparticles. The advantage of incorporating iodinin itself into a biodegradable polymer is that the drug load in the formulation may be higher. The particles may be coated with monoclonal antibodies, e.g. CD11 or CD33 against AML.

[9] = system: leukaemia cell lines and AML-patient blasts; conditions: cited from earlier work

SMILES | inhibition of growth of other bacteria [1] | toxicity towards peripheral blood leukocytes (PBL) versus DNR [2] | toxicity towards blood platelets versus DNR [3] | solubility in water [4] | activity against a mouse sarcoma model [5] | intestinal symptoms / histological alteration of the intestinal mucosa [6] | toxicity towards rat cardiomyoblasts versus DNR [7] | solubility in biocompatible solvents ([8]; biocompatible solvents) | solubility in organic solvents ([8]; organic solvents such as toluene and chloroform) | potency against leukaemia cell lines and AML-patient blasts [9] | effect on AML cells ([9]; iodinin extracted from marine actinomycetes bacteria)
[O-][n+]1c2cccc(O)c2[n+]([O-])c2cccc(O)c21 [iodinin, 1,6-dihydroxyphenazine-5,10-dioxide] | inhibit the growth | less toxic than DNR | less toxic than DNR | practically insoluble | low activity | failed to cause any intestinal symptoms or histologically detectable alteration of the intestinal mucosa | less toxic than DNR | poorly soluble | soluble | particularly potent | pronounced effect
COc1cccc2c1[n+]([O-])c1cccc(O)c1[n+]2[O-] [myxin] | – | – | – | practically insoluble | low activity | – | – | – | – | – | –
